In ChEMBL document CHEMBL1131901, “Synthesis and opiate receptor binding properties of 17-methyl-6,7-dehydro-3,14-dihydroxy-4,5alpha-epoxy-6,7:4',5'-pyrimidin omorphinans” (Bioorg Med Chem Lett, 1999):

Key:
Mu-type opioid receptor [1] = biological target: T1, Mu-type opioid receptor (Homo sapiens, UniProt P35372); assay: (§1) Agonistic activity against human opioid Delta receptor transfected into Chinese hamster ovary (CHO) cells using [3H]Cl-DPDPE as radioligand; format: functional, cell-based
Mu-type opioid receptor [2] = biological target: T1, Mu-type opioid receptor; assay: Binding affinity towards human opioid Mu receptor transfected into Chinese hamster ovary (CHO) cells using [3H]DAMGO as radioligand; format: cell-based
[3] = biological target: T2, Delta-type opioid receptor (Homo sapiens, UniProt P41143); assay: Binding affinity towards human opioid Delta receptor transfected into Chinese hamster ovary (CHO) cells using [3H]Cl-DPDPE as radioligand.; format: cell-based
[4] = biological target: T2, Delta-type opioid receptor; assay: as §1; format: functional, cell-based
Mu-type opioid receptor [5] = biological target: T1, Mu-type opioid receptor; assay: Agonistic activity against human opioid Mu receptor transfected into Chinese hamster ovary (CHO) cells using [3H]-DAMGO as radioligand; format: functional, cell-based
[6] = biological target: T3, Kappa-type opioid receptor (Homo sapiens, UniProt P41145); assay: (§2) Agonistic activity against human opioid Kappa receptor transfected into Chinese hamster ovary (CHO) cells using [3H]U-69593 as radioligand; format: functional, cell-based
[7] = biological target: T3, Kappa-type opioid receptor; assay: Binding affinity towards human opioid Kappa receptor transfected into Chinese hamster ovary (CHO) cells using [3H]U-69593 as radioligand.; format: cell-based
[8] = biological target: T3, Kappa-type opioid receptor; assay: as §2; format: functional, cell-based; remark: listed apart in the source
[9] = biological target: T3, Kappa-type opioid receptor; conditions: CHO
Description: Antagonistic activity against human opioid Kappa receptor transfected into Chinese hamster ovary (CHO) cells using [3H]U-69593 as radioligand

[10] = biological target: T2, Delta-type opioid receptor; assay: as §1; format: functional, cell-based; remark: listed apart in the source
Mu-type opioid receptor [11] = biological target: T1, Mu-type opioid receptor; assay: Agonistic activity against human opioid Mu receptor transfected into Chinese hamster ovary (CHO) cells using [3H]DAMGO as radioligand; format: functional, cell-based

T1 sequence (P35372 whole entry): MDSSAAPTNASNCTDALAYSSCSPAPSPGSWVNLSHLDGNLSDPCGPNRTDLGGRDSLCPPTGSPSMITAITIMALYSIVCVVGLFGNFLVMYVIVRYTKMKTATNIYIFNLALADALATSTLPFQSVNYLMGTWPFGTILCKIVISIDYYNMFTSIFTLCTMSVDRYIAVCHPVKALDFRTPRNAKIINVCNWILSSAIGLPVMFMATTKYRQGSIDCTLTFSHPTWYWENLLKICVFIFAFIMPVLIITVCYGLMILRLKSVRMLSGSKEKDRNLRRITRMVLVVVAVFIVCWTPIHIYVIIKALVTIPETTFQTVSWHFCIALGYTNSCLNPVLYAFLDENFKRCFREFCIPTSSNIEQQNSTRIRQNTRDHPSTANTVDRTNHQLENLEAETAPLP
T3 sequence (P41145 whole entry): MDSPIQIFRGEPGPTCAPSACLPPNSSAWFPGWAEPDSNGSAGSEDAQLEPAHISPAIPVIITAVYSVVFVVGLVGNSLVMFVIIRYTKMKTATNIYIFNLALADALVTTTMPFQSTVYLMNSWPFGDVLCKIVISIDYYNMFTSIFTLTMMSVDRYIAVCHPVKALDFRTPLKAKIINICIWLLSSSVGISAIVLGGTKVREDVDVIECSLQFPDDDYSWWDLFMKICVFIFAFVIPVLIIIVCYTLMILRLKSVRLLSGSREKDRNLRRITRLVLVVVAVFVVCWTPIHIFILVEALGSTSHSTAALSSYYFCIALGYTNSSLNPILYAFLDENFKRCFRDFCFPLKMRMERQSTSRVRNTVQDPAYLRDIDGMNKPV
T2 sequence (P41143 whole entry): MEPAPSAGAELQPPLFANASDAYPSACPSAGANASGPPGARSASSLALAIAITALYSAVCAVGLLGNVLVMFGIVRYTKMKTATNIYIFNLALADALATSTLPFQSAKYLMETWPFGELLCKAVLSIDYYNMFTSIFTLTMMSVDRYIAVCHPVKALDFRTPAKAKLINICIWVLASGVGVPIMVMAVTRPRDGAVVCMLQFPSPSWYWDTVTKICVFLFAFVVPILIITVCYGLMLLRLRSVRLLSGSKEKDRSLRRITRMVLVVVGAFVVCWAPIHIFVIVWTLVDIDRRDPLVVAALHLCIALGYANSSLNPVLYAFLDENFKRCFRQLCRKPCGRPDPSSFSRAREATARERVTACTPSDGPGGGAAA

| SMILES | Stimulation (Mu-type opioid receptor [1]) | Ki (Mu-type opioid receptor [2]) | Ki [3] | EC50 [4] | EC50 (Mu-type opioid receptor [5]) | Stimulation [6] | Ki [7] | EC50 [8] | Ke [9] | Stimulation [10] | Stimulation (Mu-type opioid receptor [11]) |
| --- | --- | --- | --- | --- | --- | --- | --- | --- | --- | --- | --- |
| CN1CCC23c4c5ccc(O)c4OC2c2nc(N)ncc2CC3(O)C1C5 (centres undefined) | 78.7% | 0.00732 µM | 0.019 µM | 0.0661 µM | 0.0752 µM | 34.3% | 0.0211 µM | 1.07 µM |  |  |  |
| CN1CCC23c4c5ccc(O)c4OC2c2[nH]c(=O)ncc2CC3(O)C1C5 (centres undefined) |  | 0.00375 µM | 0.0191 µM | 0.0615 µM | 0.11 µM |  | 0.0123 µM | 1.02 µM |  |  |  |
| CN1CCC23c4c5ccc(O)c4OC2c2n[nH]cc2CC3(O)C1C5 (centres undefined) |  | 0.00172 µM | 0.0122 µM | 0.025 µM | 0.0193 µM | 18.9% | 0.0119 µM |  | 59.3 | 75.2% | 80.3% |
| CN1CCC23c4c5ccc(O)c4OC2c2nc(-c4ccccc4)ncc2CC3(O)C1C5 (centres undefined) |  | 0.00734 µM | 0.00648 µM | 0.024 µM | 0.0584 µM | 49.5% | 0.045 µM | 1.42 µM |  | 92.5% | 89.4% |
| Cc1ncc2c(n1)C1Oc3c(O)ccc4c3C13CCN(C)C(C4)C3(O)C2 (centres undefined) |  | 0.00526 µM | 0.024 µM | 0.0959 µM | 0.0719 µM | 97% | 0.0685 µM | 2.73 µM |  | 60% | 109% |
| CN1CCC23c4c5ccc(O)c4OC2c2nc(O)ncc2CC3(O)C1C5 (centres undefined) |  |  |  |  |  | 40.7% |  |  |  | 97% | 87.7% |
